Measurements from ChEMBL document CHEMBL1143501, “Structure-activity relationship of the novel bivalent and C-terminal modified analogues of endomorphin-2” (Bioorg Med Chem Lett, 2005).
Starred links: 1 amine or outer side, 2 acyl side, 3 side chain; linkers in the order of their positions; H or OH if unused. Positions of bridges follow the written chain, without caps; N, C: chain ends. Residues, ends and D or L forms follow the SMILES beside them. Chains are numbered I, II in the order given. Ethylenediamine = C(CN[*:2])N[*:1]

Legend:
[1] = target: Delta-type opioid receptor (Mus musculus, UniProt P32300); assay: In vitro inhibitory concentration against Opioid receptor delta 1 was measured using mouse vas deferens assay
Mu-type opioid receptor = Mu-type opioid receptor (Cavia porcellus, UniProt P97266); assay: In vitro inhibitory concentration against Opioid receptor mu 1 was measured using guinea pig ileum assay; format: tissue-based
[2] = Mean value of binding constant for Opioid receptors assayed with [3H]DAMGO
[3] = Mean value of binding constant for Opioid receptors assayed with [3H]DPDPE
[4] = target: Delta-type opioid receptor (Mus musculus) (UniProt P32300); assay: Ratio of IC50s against Opioid receptor delta 1 was measured in mouse vas deferens to that of guinea pig ileum; format: tissue-based
[5] = target: Mu-type opioid receptor (Cavia porcellus) (UniProt P97266); assay: Relative potency of EM-2 measured towards Opioid receptor mu 1 assayed with [3H]DAMGO
[6] = target: Mu-type opioid receptor (Cavia porcellus) (UniProt P97266); assay: In vitro potency of EM-2 was measured towards Opioid receptor mu 1 using guinea pig ileum assay; format: tissue-based
[7] = target: Delta-type opioid receptor (Mus musculus) (UniProt P32300); assay: In vitro potency of EM-2 measured towards Opioid receptor delta 1 using mouse vas deferens assay; format: functional, tissue-based
[8] = Selectivity for Opioid receptor mu 1 to that of Opioid receptor delta 1
[9] = target: Delta-type opioid receptor (Mus musculus) (UniProt P32300); assay: Relative potency of EM-2 measured towards Opioid receptor delta 1 assayed with [3H]DPDPE

Sequence of Mu-type opioid receptor (Cavia porcellus) (P97266 whole entry): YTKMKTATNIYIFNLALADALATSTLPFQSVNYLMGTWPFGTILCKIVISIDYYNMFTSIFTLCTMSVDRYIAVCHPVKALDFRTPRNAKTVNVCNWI
Sequence of Mu-type opioid receptor (P97266 whole entry): as above
Sequence of Delta-type opioid receptor (Mus musculus) (P32300 whole entry): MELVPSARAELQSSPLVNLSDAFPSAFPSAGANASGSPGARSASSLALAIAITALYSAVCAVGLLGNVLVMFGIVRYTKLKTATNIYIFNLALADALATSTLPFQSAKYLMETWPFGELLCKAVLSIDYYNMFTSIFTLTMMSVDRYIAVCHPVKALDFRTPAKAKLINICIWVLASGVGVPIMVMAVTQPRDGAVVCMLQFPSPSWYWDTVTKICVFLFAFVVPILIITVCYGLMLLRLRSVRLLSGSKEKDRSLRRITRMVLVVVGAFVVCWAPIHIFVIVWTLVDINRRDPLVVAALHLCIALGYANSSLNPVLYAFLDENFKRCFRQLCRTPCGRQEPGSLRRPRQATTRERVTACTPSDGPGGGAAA
Sequence of Delta-type opioid receptor (P32300 whole entry): as above

Compound	IC50 [1] [nM]	IC50 (Mu-type opioid receptor) [nM]	Ki [2] [nM]	Ki [3] [nM]	Ratio [4]	Relative potency [5]	Relative potency [6]	Relative potency [7]	Selectivity [8]	Relative potency [9]
N[C@@H](Cc1ccc(O)cc1)C(=O)N1CCC[C@H]1C(=O)N[C@@H](Cc1ccccc1)C(=O)N[C@@H](Cc1ccccc1)C(=O)NCCNC(=O)[C@H](Cc1ccccc1)NC(=O)[C@H](Cc1ccccc1)NC(=O)[C@@H]1CCCN1C(=O)[C@@H](N)Cc1ccc(O)cc1	29	3540	86.3	613						
N[C@@H](Cc1ccc(O)cc1)C(=O)N1CCC[C@H]1C(=O)N[C@@H](Cc1ccccc1)C(=O)N[C@@H](Cc1ccccc1)C(=O)NNC(=O)[C@H](Cc1ccccc1)NC(=O)[C@H](Cc1ccccc1)NC(=O)[C@@H]1CCCN1C(=O)[C@@H](N)Cc1ccc(O)cc1	721	518	96.4	539						
N[C@@H](Cc1ccc(O)cc1)C(=O)N1CCC[C@H]1C(=O)N[C@@H](Cc1ccccc1)C(=O)NCCNC(=O)[C@H](Cc1ccccc1)NC(=O)[C@@H]1CCCN1C(=O)[C@@H](N)Cc1ccc(O)cc1 (I: H-Tyr-Pro-Phe / II: H-Tyr-Pro-Phe; linker I:C-II:C via Ethylenediamine)	1010	218	26.1	923						
N[C@@H](Cc1ccc(O)cc1)C(=O)N1CCC[C@H]1C(=O)N[C@@H](Cc1ccccc1)C(=O)N[C@@H](Cc1ccccc1)C(=O)NCCCCNC(=O)[C@H](Cc1ccccc1)NC(=O)[C@H](Cc1ccccc1)NC(=O)[C@@H]1CCCN1C(=O)[C@@H](N)Cc1ccc(O)cc1	> 10000		168	7020						
COC(=O)[C@H](Cc1ccccc1)NC(=O)[C@H](Cc1ccccc1)NC(=O)[C@@H]1CCCN1C(=O)[C@@H](N)Cc1ccc(O)cc1	37.2	42.1	9.07	> 10000	0.88	0.91	0.35	1.3	> 1110	
H-YPFYPF-NH2					2.82	0.27	0.013	0.015	61.8	4.41
NNC(=O)[C@H](Cc1ccccc1)NC(=O)[C@H](Cc1ccccc1)NC(=O)[C@@H]1CCCN1C(=O)[C@@H](N)Cc1ccc(O)cc1	185	132	9.35	> 10000	1.4	0.88	0.11	0.26	> 1070	
N[C@@H](Cc1ccc(O)cc1)C(=O)N1CCC[C@H]1C(=O)N[C@@H](Cc1ccccc1)C(=O)NNC(=O)[C@H](Cc1ccccc1)NC(=O)[C@@H]1CCCN1C(=O)[C@@H](N)Cc1ccc(O)cc1	3200	1140	30.7	1900						
NC(=O)[C@H](Cc1ccccc1)NC(=O)[C@@H]1CCCN1C(=O)[C@@H](N)Cc1ccc(O)cc1 (H-Tyr-Pro-Phe-NH2)			140	> 10000		0.059			> 71.4	
NC(=O)[C@H](Cc1ccccc1)NC(=O)[C@@H]1CCCN1C(=O)[C@H](Cc1ccc(O)cc1)NCCC(=O)[C@H](Cc1ccccc1)NC(=O)[C@@H]1CCCN1C(=O)[C@@H](N)Cc1ccc(O)cc1					4.64	0.32	0.067	0.048	35.4	9.06
